This is an account of results in patent US10544143B2, “4-azaindole compounds” (BRISTOL-MYERS SQUIBB COMPANY, priority 2017, dated 2020).

The target in one experiment is human TLR7 (Homo sapiens (Human), UniProt Q9NYK1). Kind of experiment: TLR7 inhibition reporter assay (HEK-Blue SEAP). The note with it: HEK-Blue cells overexpressing human TLR7, gardiquimod 7.5 μM stimulation, SEAP reporter. The class given is cell-based.
The target in another experiment is human TLR8 (Homo sapiens (Human), UniProt Q9NR97). Kind of experiment: TLR8 inhibition reporter assay (HEK-Blue SEAP).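 Note: SEAP driven by IFN-β minimal promoter carrying NF-κB and AP-1 sites, compounds dosed 0.05 nM to 50 µM for 22 h, inhibition scaled between agonist-plus-DMSO and reference-inhibitor wells.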 The note with it: read-out: TLR8 IC50; HEK-Blue cells overexpressing human TLR8, R848 15.9 μM stimulation, SEAP reporter.
Sequence of human TLR8 (Q9NR97 27-1041): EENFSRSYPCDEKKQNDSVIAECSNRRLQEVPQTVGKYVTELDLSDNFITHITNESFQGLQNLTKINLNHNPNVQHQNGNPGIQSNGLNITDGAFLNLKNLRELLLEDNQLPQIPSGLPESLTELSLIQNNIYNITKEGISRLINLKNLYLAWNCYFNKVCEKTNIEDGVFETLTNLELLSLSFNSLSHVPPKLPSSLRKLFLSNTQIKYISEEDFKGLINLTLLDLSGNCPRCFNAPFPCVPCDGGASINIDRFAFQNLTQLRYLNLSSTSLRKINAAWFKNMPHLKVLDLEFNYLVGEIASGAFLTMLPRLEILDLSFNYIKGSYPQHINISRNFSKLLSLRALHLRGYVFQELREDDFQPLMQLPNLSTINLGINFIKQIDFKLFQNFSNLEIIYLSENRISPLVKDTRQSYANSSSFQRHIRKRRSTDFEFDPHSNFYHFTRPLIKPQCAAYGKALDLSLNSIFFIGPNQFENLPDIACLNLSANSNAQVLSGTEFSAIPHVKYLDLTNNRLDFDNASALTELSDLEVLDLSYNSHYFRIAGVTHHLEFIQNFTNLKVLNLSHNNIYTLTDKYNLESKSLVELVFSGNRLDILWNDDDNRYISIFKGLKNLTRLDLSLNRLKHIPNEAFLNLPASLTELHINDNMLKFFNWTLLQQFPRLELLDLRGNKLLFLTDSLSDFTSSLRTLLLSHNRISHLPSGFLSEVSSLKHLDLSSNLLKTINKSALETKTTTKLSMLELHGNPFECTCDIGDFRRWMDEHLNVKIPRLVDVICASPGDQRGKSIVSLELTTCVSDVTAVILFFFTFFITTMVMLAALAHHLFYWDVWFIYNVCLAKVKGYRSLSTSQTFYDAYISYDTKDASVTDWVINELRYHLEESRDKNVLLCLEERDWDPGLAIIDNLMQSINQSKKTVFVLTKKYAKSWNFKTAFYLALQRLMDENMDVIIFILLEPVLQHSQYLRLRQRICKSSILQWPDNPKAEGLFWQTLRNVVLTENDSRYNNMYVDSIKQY
Another experiment concerns the target human TLR9 (Homo sapiens (Human), UniProt Q9NR96). Kind of experiment: TLR9 inhibition reporter assay (HEK-Blue SEAP).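 Note: SEAP driven by an IFN-β minimal promoter with NF-κB and AP-1 sites, read after 22 h, compounds dosed 0.05 nM–50 µM, inhibition scaled between agonist plus DMSO and reference-inhibitor wells.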 The note with it: read-out: TLR9 IC50; HEK-Blue cells overexpressing human TLR9, ODN2006 5 nM stimulation, SEAP reporter. On the technique in general: In a reporter assay the amount or activity of a reporter protein is the signal.

A value given as a limit tells only on which side of the number the result lay.

Sequence of human TLR7 (Q9NYK1 27-1049): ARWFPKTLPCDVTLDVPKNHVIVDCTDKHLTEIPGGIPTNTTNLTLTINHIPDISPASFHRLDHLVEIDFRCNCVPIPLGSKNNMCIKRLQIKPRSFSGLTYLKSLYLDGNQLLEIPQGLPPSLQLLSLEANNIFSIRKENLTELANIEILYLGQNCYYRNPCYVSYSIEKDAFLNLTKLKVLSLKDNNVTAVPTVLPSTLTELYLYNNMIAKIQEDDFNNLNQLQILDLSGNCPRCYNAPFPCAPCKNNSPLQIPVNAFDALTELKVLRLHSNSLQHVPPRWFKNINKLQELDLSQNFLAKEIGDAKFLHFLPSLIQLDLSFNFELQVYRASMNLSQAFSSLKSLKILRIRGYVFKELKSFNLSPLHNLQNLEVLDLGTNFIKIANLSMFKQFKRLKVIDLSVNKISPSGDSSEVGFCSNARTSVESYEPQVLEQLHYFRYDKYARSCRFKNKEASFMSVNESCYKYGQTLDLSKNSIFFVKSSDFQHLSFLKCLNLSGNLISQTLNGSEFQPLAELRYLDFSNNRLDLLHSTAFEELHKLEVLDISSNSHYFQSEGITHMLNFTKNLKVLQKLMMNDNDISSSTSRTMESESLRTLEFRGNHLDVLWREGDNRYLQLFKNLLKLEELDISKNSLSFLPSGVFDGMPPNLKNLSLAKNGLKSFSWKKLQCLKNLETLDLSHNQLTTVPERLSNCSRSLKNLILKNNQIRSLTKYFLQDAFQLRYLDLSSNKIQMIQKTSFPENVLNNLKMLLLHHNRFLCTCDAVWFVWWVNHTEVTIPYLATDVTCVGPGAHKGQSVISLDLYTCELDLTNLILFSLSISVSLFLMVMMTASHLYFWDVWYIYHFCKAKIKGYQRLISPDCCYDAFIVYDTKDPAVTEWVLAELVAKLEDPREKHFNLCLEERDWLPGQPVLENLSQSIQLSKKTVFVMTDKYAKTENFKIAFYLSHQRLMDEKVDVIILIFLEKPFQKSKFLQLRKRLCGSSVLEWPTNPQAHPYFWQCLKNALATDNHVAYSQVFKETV
Sequence of human TLR9 (Q9NR96 26-1032): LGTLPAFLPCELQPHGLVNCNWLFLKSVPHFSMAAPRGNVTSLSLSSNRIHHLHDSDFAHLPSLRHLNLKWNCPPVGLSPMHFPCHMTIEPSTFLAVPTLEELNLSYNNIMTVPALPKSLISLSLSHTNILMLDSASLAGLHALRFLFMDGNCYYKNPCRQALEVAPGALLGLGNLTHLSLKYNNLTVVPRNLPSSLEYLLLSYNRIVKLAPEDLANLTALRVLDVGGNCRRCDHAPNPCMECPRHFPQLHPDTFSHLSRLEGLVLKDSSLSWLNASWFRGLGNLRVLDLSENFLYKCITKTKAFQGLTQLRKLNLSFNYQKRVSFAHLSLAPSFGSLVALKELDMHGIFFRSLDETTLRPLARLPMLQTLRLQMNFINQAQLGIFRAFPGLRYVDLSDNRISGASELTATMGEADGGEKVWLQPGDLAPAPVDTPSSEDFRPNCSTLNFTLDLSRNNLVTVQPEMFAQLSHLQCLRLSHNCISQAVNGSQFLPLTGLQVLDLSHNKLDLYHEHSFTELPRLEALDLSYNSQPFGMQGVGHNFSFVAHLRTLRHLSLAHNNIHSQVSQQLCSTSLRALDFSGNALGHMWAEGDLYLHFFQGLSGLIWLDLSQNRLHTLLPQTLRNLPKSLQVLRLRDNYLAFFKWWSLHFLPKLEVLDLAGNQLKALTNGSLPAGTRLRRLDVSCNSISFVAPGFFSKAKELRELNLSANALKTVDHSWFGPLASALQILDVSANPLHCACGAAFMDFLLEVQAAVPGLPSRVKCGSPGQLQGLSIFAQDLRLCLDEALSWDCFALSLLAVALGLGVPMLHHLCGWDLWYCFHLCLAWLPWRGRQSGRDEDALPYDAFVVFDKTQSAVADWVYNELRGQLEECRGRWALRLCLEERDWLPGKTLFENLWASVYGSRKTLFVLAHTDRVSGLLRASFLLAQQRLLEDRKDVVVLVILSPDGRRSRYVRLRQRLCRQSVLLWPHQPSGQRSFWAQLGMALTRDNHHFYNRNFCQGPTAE

Turning to `CC(C)c1c(-c2cn(C)c3ncncc23)[nH]c2ccc(N3CCN(C4CCOCC4)CC3)nc12` [Example 127], the IC50 against human TLR7 worked out at 4.6 nM; on human TLR8, 0.48 nM; on human TLR9 it was 5900 nM.

In the case of `COc1cc(-c2[nH]c3ccc(N4CCN(CC(=O)N(C)C)CC4)nc3c2C(C)C)cn2ncnc12` [Example 128], the half-maximal inhibitory concentration (IC50) on human TLR7 was found to be 5.4 nM; on human TLR8, 2.6 nM; at human TLR9 it was 35400 nM.

Turning to `COc1cc(-c2[nH]c3ccc(N4CCN(Cc5cn(C)nn5)CC4)nc3c2C(C)C)cn2ncnc12` [Example 129], the results for the concentration for half-maximal inhibition (IC50) against human TLR7, on human TLR8 and on human TLR9 were 6.7 nM, 1.3 nM and 22800 nM, respectively.

With `COc1cc(-c2[nH]c3ccc(N4CCN(CC(N)=O)CC4)nc3c2C(C)C)cn2ncnc12` [Example 130], the half-inhibitory concentration (IC50) on human TLR7 is 4.3 nM; on human TLR8 it was 4.7 nM; at human TLR9 it was over 50000 nM.

Regarding `COCCN1CCN(c2ccc3[nH]c(-c4cc(OC)c5ncnn5c4)c(C(C)C)c3n2)CC1` [Example 131], the figures for the IC50 against human TLR7, on human TLR8 and at human TLR9 were 3.3 nM, 0.63 nM and 8570 nM, respectively.

Take `COc1cc(-c2[nH]c3ccc(N4CCN(CCCS(C)(=O)=O)CC4)nc3c2C(C)C)cn2ncnc12` [Example 132]: the IC50 against human TLR7 was found to be 2.8 nM; at human TLR8, 0.51 nM; at human TLR9 it was 7390 nM.

For the molecule `COc1cc(-c2[nH]c3ccc(N4CCN(C5CCS(=O)(=O)CC5)CC4)nc3c2C(C)C)cn2ncnc12` [Example 133], the results for the IC50 at human TLR7, at human TLR8 and on human TLR9 were 4.3 nM, 1.4 nM and over 50000 nM, respectively.

Take `COc1cc(-c2[nH]c3ccc(N4CCN(CCNS(C)(=O)=O)CC4)nc3c2C(C)C)cn2ncnc12` [Example 134]: the values for the half-maximal inhibitory concentration (IC50) on human TLR7, at human TLR8 and at human TLR9 were 3.7 nM, 1.1 nM and 26100 nM, respectively.

Take `COc1cc(-c2[nH]c3ccc(N4CCN(CCCC(F)(F)F)CC4)nc3c2C(C)C)cn2ncnc12` [Example 135]: the half-maximal inhibitory concentration (IC50) against human TLR7 came out at 4.7 nM; on human TLR8, 1.6 nM; on human TLR9, 13200 nM.

For the molecule `COc1cc(-c2[nH]c3ccc(N4CCN(CCC(=O)N(C)C)CC4)nc3c2C(C)C)cn2ncnc12` [Example 136], the IC50 worked out at 5.7 nM against human TLR7, 0.79 nM on human TLR8 and 8220 nM on human TLR9.

On to `COc1cc(-c2[nH]c3ccc(N4CCN(CCC(N)=O)CC4)nc3c2C(C)C)cn2ncnc12` [Example 137], for which the IC50 turned out to be 5.6 nM on human TLR7, 1.3 nM on human TLR8 and 8450 nM at human TLR9.

For `CNC(=O)CN1CCN(c2ccc3[nH]c(-c4cc(OC)c5ncnn5c4)c(C(C)C)c3n2)CC1` [Example 138], the 50% inhibitory concentration (IC50) against human TLR7 was 11 nM; on human TLR8 it was 4.6 nM; on human TLR9, over 50000 nM.

Regarding `Cc1c(-c2[nH]c3ccc(N4CCNCC4=O)nc3c2C(C)C)cn2ncnc2c1C` [Example 139], the 50% inhibitory concentration (IC50) was 37 nM at human TLR7, 14 nM at human TLR8 and over 50000 nM on human TLR9.

For the molecule `Cc1c(-c2[nH]c3ccc(N4CCN(C5COC5)CC4=O)nc3c2C(C)C)cn2ncnc2c1C` [Example 140], the half-inhibitory concentration (IC50) is 127 nM against human TLR7, 186 nM at human TLR8 and over 50000 nM on human TLR9.

As for `Cc1c(-c2[nH]c3ccc(N4CCN(CC(=O)N(C)C)CC4=O)nc3c2C(C)C)cn2ncnc2c1C` [Example 141], the half-maximal inhibitory concentration (IC50) is 134 nM against human TLR7, 148 nM on human TLR8 and over 50000 nM at human TLR9.

Take `Cc1c(-c2[nH]c3ccc(N4CCN(C)CC4=O)nc3c2C(C)C)cn2ncnc2c1C` [Example 142]: the IC50 is 107 nM against human TLR7, 45 nM at human TLR8 and over 50000 nM at human TLR9.

As to `Cc1c(-c2[nH]c3ccc(N4CCN(C(=O)CN5CCOCC5)CC4)nc3c2C(C)C)cn2ncnc2c1C` [Example 143], the IC50 against human TLR7 is 7.8 nM; on human TLR8, 4.5 nM; on human TLR9 it was over 50000 nM.

Consider `Cc1c(-c2[nH]c3ccc(N4CCN(CC(=O)N(C)C)CC4)nc3c2C(C)C)cn2ncnc2c1C` [Example 144], for which the values for the half-maximal inhibitory concentration (IC50) at human TLR7, on human TLR8 and on human TLR9 were 8.4 nM, 1.2 nM and over 50000 nM, respectively.

With `Cc1c(-c2[nH]c3ccc(N4CCN(C(=O)CN5CCCC5)CC4)nc3c2C(C)C)cn2ncnc2c1C` [Example 145], the IC50 was found to be 1.5 nM against human TLR7, 0.49 nM on human TLR8 and 8200 nM on human TLR9.

On to `Cc1c(-c2[nH]c3ccc(N4CCN(C(=O)CN5CCC5)CC4)nc3c2C(C)C)cn2ncnc2c1C` [Example 146], for which the half-inhibitory concentration (IC50) against human TLR7 was found to be 5.6 nM; at human TLR8, 2.5 nM; on human TLR9, 12900 nM.

With `Cc1c(-c2[nH]c3ccc(N4CCN(CCCS(C)(=O)=O)CC4)nc3c2C(C)C)cn2ncnc2c1C` [Example 147], the IC50 against human TLR7 amounted to 5 nM; at human TLR8 it was 0.26 nM; at human TLR9 it was 18700 nM.

For the molecule `Cc1c(-c2[nH]c3ccc(N4CCN(CCC#N)CC4)nc3c2C(C)C)cn2ncnc2c1C` [Example 148], the IC50 on human TLR7 was 97 nM; on human TLR8 it was 16 nM; on human TLR9, over 50000 nM.

For the molecule `Cc1c(-c2[nH]c3ccc(N4CCN(CCC(N)=O)CC4)nc3c2C(C)C)cn2ncnc2c1C` [Example 149], the results for the half-inhibitory concentration (IC50) against human TLR7, on human TLR8 and on human TLR9 were 9.3 nM, 0.4 nM and 19500 nM, respectively.

For the molecule `Cc1c(-c2[nH]c3ccc(N4CCNC(=O)C4)nc3c2C(C)C)cn2ncnc2c1C` [Example 150], the IC50 is 12 nM at human TLR7, 2.7 nM at human TLR8 and over 50000 nM at human TLR9.

Consider `Cc1c(-c2[nH]c3ccc(N4CCN(S(=O)(=O)CCN(C)C)CC4)nc3c2C(C)C)cn2ncnc2c1C` [Example 151], for which the IC50 at human TLR7 stood at 1.2 nM; on human TLR8, 1.2 nM; at human TLR9, 12000 nM.

Consider `Cc1c(-c2[nH]c3ccc(N4CCNC[C@@H]4C)nc3c2C(C)C)cn2ncnc2c1C` [Example 152], for which the IC50 was determined as 2.7 nM at human TLR7, 1.6 nM at human TLR8 and 5880 nM at human TLR9.

For the molecule `Cc1c(-c2[nH]c3ccc(N4CCNC[C@H]4C)nc3c2C(C)C)cn2ncnc2c1C` [Example 153], the IC50 was determined as 0.87 nM at human TLR7, 1.6 nM at human TLR8 and 7150 nM at human TLR9.

Turning to `Cc1c(-c2[nH]c3ccc(N4CCN(CCN5CCOCC5)C(=O)C4)nc3c2C(C)C)cn2ncnc2c1C` [Example 154], the results for the concentration for half-maximal inhibition (IC50) against human TLR7, at human TLR8 and on human TLR9 were 1920 nM, 600 nM and over 50000 nM, respectively.

As to `Cc1c(-c2[nH]c3ccc(N4CCN(CCN5CCOCC5)C(=O)C4)nc3c2C(C)C)cn2ncnc2c1C` [Example 155], the half-inhibitory concentration (IC50) is 401 nM against human TLR7, 56 nM at human TLR8 and over 50000 nM on human TLR9.

Take `Cc1c(-c2[nH]c3ccc(N4CCN(C(=O)CNC5CCC5)CC4)nc3c2C(C)C)cn2ncnc2c1C` [Example 156]: the 50% inhibitory concentration (IC50) worked out at 1.5 nM against human TLR7, 0.79 nM on human TLR8 and 6750 nM at human TLR9.

With `Cc1c(-c2[nH]c3ccc(N4CCN(C(=O)CNC(C)C)CC4)nc3c2C(C)C)cn2ncnc2c1C` [Example 157], the values for the IC50 against human TLR7, at human TLR8 and at human TLR9 were 2.2 nM, 1.2 nM and 8840 nM, respectively.

Turning to `Cc1c(-c2[nH]c3ccc(N4CCN(C(=O)CNCCO)CC4)nc3c2C(C)C)cn2ncnc2c1C` [Example 158], the IC50 turned out to be 2.3 nM at human TLR7, 0.96 nM at human TLR8 and 8260 nM on human TLR9.

In the case of `COCCNCC(=O)N1CCN(c2ccc3[nH]c(-c4cn5ncnc5c(C)c4C)c(C(C)C)c3n2)CC1` [Example 159], the concentration for half-maximal inhibition (IC50) turned out to be 2.4 nM on human TLR7, 1 nM on human TLR8 and 7740 nM at human TLR9.

Turning to `Cc1c(-c2[nH]c3ccc(N4CCN(C(=O)CN5CCC(O)CC5)CC4)nc3c2C(C)C)cn2ncnc2c1C` [Example 160], the IC50 against human TLR7 was determined as 1.8 nM; at human TLR8 it was 1.2 nM; at human TLR9 it was 10600 nM.

`Cc1c(-c2[nH]c3ccc(N4CCN(C(=O)CNCC5CC5)CC4)nc3c2C(C)C)cn2ncnc2c1C` [Example 161]: the half-inhibitory concentration (IC50) is 1.4 nM against human TLR7, 0.92 nM on human TLR8 and 5920 nM at human TLR9.

Take `Cc1c(-c2[nH]c3ccc(N4CCCNCC4)nc3c2C(C)C)cn2ncnc2c1C` [Example 162]: the concentration for half-maximal inhibition (IC50) against human TLR7 worked out at 2.8 nM; on human TLR8, 2.8 nM; on human TLR9 it was 23100 nM.

In the case of `Cc1c(-c2[nH]c3ccc(N4CCCN(CC(=O)N(C)C)CC4)nc3c2C(C)C)cn2ncnc2c1C` [Example 163], the concentration for half-maximal inhibition (IC50) against human TLR7 amounted to 9.7 nM; at human TLR8, 5 nM; at human TLR9 it was 24800 nM.

Consider `Cc1c(-c2[nH]c3ccc(N4CCC(NCC5(S(C)(=O)=O)CC5)C4)nc3c2C(C)C)cn2ncnc2c1C` (stereo not drawn) [Example 165], for which the IC50 against human TLR7 was found to be 11 nM; on human TLR8 it was 0.68 nM; at human TLR9 it was 22700 nM.

Turning to `COc1cc(-c2[nH]c3ccc(C4CCC(N(C)CCC#N)CC4)nc3c2C(C)C)cn2ncnc12` (stereo not drawn) [Example 166], the concentration for half-maximal inhibition (IC50) against human TLR7 stood at 1.5 nM; on human TLR8, 18 nM; at human TLR9, 2190 nM.

With `COc1cc(-c2[nH]c3ccc(C4CCC(NC(C)C)CC4)nc3c2C(C)C)cn2ncnc12` (stereo not drawn) [Example 167], the IC50 came out at 0.43 nM against human TLR7, 1.7 nM at human TLR8 and 156 nM on human TLR9.

On to `COc1cc(-c2[nH]c3ccc(C4CCC(N(C)C(C)C)CC4)nc3c2C(C)C)cn2ncnc12` (stereo not drawn) [Example 168], for which the results for the 50% inhibitory concentration (IC50) against human TLR7, on human TLR8 and on human TLR9 were 0.89 nM, 3.4 nM and 658 nM, respectively.

Consider `COc1cc(-c2[nH]c3ccc(C4CCC(N(C)CCO)CC4)nc3c2C(C)C)cn2ncnc12` (stereo not drawn) [Example 169], for which the IC50 came to 3.1 nM on human TLR7, 21 nM at human TLR8 and 1220 nM on human TLR9.

`COc1cc(-c2[nH]c3ccc(C4CCC(N(C)C(C)C)CC4)nc3c2C(C)C)cn2ncnc12` (stereo not drawn) [Example 170]: the IC50 on human TLR7 was 2 nM; on human TLR8 it was 17 nM; at human TLR9, 1410 nM.

One may read the IC50 as the concentration needed to halve the response being measured.
